Laboratory results from US9469647B2, “Salt crystals” (INTRA-CELLULAR THERAPIES, INC., priority 2012, dated 2016).
Where a name gives a salt, the structure may show the parent alone. Read-outs that look alike come from different tables or passages of the source.

How the values were obtained:
[1] = Solubility study of phosphate salt crystals in aqueous media at pH 1.2-6.8; format: physicochemical; details: for solubility at 1 hr: read-out: Solubility after 1 hr; for solubility at 16 hr: read-out: Solubility after 16 hrs
Procedure: The (6aR,9aS)-5,6a,7,8,9,9a-hexahydro-5-methyl-3-(phenylamino)-2-((4-(6-fluoropyridin-2-yl)phenyl)methyl)-cyclopent[4,5]imidazo[1,2-a]pyrazolo[4,3-e]pyrimidin-4(2H)-one mono-phosphate salt crystals are assessed for its aqueous solubility at lower pH. The (amorphous) free base is also tested for reference at a limited range of pH.
Phosphate (buffer) solutions are made at 50 mM concentration and the pH is adjusted to pH 2, 3, 4, 5 or 6.8 using either 3M phosphoric acid (lower pH) or 3M NaOH (higher pH). 0.1N HCl is also used, pH is measured as 1.2.
20 mg of the (6aR,9aS)-5,6a,7,8,9,9a-hexahydro-5-methyl-3-(phenylamino)-2-((4-(6-fluoropyridin-2-yl)phenyl)methyl)-cyclopent[4,5]imidazo[1,2-a]pyrazolo[4,3-e]pyrimidin-4(2H)-one mono-phosphate salt crystals or free base is weighed into a glass vial, and 2 ml of the relevant aqueous media is added. The vials are shaken. After 1 hr, a sample (˜1 ml) is removed via syringe, and filtered through a syringe filter (0.2 micron) into an HPLC vial. After shaking the suspensions for 16 hours, a second sample is taken. All samples are then diluted with the HPLC diluent by a factor of 1000 (except the pH 6.8 samples which are diluted ×10), and re-analysed by HPLC. In cases where the entire solid dissolved, the 2 ml solution is added to another 20 mg salt or free base.

[2] = USP2 dissolution study at pH 1 and 4.5; format: physicochemical; details: for solubility at low pH in dissolution study: pH 1 (0.1 M HCl), 37 C; for time to full dissolution: pH 1, about 0.1 mg/mL (API equivalent), capsule in 1000 mL, 50 rpm
Excerpt: The rate of dissolution is an important factor in the bioavailability of an active pharmaceutical ingredient (API). This is commonly tested using standard conditions e.g. USP 2 dissolution testing. The pH of the aqueous media used can be correlated with the pH of the stomach (low pH −1-2) and the intestines (intermediate acidic pH −4-6). Therefore pH 1 (0.1 M HCl) and a citrate buffer at pH 4.5 (0.2M) are used for the dissolution testing.
The (6aR,9aS)-5,6a,7,8,9,9a-hexahydro-5-methyl-3-(phenylamino)-2-((4-(6-fluoropyridin-2-yl)phenyl)methyl)-cyclopent[4,5]imidazo[1,2-a]pyrazolo[4,3-e]pyrimidin-4(2H)-one mono-phosphate salt crystals are weighed (×4) into size 0 white gelatine capsules at 119 mg per capsule (equivalent to 100 mg API). The (6aR,9aS)-5,6a,7,8,9,9a-hexahydro-5-methyl-3-(phenylamino)-2-((4-(6-fluoropyridin-2-yl)phenyl)methyl)-cyclopent[4,5]imidazo-[1,2-a]pyrazolo[4,3-e]pyrimidin-4(2H)-one is also weighed (×2) into white gelatine capsules at 100 mg per capsule. These capsules are then dissolved using the standard set up of the USP 2 dissolution equipment i.e., in 1000 mL of the relevant aqueous media, stirrers set at 50 rpm, capsules placed in metal coils to weigh them down, media equilibrated with the water bath set at 37″C. Analytical samples are removed via canula, with an initial filter on the canula and secondary filtering through 0.2 micron syringe filters. The samples are then analysed without dilution by HPLC for API content. Calibration for HPLC is run using both the free base API and the phosphate salt.

[3] = Bridging study of monophosphate salt and free base in dog (plasma pharmacokinetics); format: in vivo; details: po, 40 mg/kg; for half-life: read-out: E Half-life (converted)
Procedure: The mono-phosphate salt of (6aR,9aS)-5,6a,7,8,9,9a-hexahydro-5-methyl-3-(phenylamino)-2-((4-(6-fluoropyridin-2-yl)phenyl)methyl)-cyclopent[4,5]imidazo[1,2-a]pyrazolo[4,3-e]pyrimidin-4(2H)-one is administered to dogs at a dose of 40 mg/kg in gelatin capsules or via oral gavage in a vehicle formulation of HCl-Citrate, pH 3.5, 0.5% methylcellulose in water. […] The analysis of drug concentration in plasma samples collected is analyzed.
The pharmacokinetic (PK) parameters are determined from the plasma concentration versus time data by non-compartmental methods with uniform weighting (PK solutions 2.0™, Summit Research Services, Montrose, Colo.). The maximum observed concentration (Cmax) and the time of the maximum observed concentration (tmax) are obtained from the bioanalytical raw data. The area-under-the-plasma concentration-time curve from time zero to the time of the last measurable sample (AUC_) is calculated by the trapezoidal rule.

[4] = test system: phosphodiesterase 1 (PDE 1); details: statement referring to WO 2009/075784; cited from earlier work
[5] = Single rising dose clinical study (pharmacokinetic profile); format: in vivo; details: plasma, human, aqueous solution, Mean (SD)
Procedure: In a single rising dose clinical study involving 55 active subjects (15 placebo) with 11 active:3 placebo for each dose level of 10, 25, 75, 150, 300 mg, the mono-phosphate salt crystals of (6aR,9aS)-5,6a,7,8,9,9a-hexahydro-5-methyl-3-(phenylamino)-2-((4-(6-fluoropyridin-2-yl)phenyl)methyl)-cyclopent[4,5]imidazo[1,2-a]pyrazolo[4,3-e]pyrimidin-4(2H)-one is dissolved in water, and this aqueous solution is orally administered. The pharmacokinetic profile is setforth below in Table 7.

[6] = Solid-state properties of the mono-phosphate salt crystals for galenic formulation; format: physicochemical
[7] = 50 mM phosphate buffer, pH 2, aqueous buffer, thermodynamic from solid, pH 2, 50 mM phosphate buffer
[8] = 0.1N HCl, pH 1.2, simulated gastric fluid, thermodynamic from solid, pH 1.2 (0.1N HCl)
[9] = both sexes, Mean (M-5001 to F-5102), oral gavage
[10] = female, dog F-5101, oral gavage
[11] = female, dog F-5102, oral gavage
[12] = 50 mM phosphate buffer, pH 4, aqueous buffer, thermodynamic from solid, pH 4, 50 mM phosphate buffer
[13] = pH 5, 50 mM phosphate buffer, diluted 1000 times before HPLC
[14] = pH 6.8, 50 mM phosphate buffer, diluted 10 times before HPLC
[15] = female, dog F-1101, oral gavage
[16] = female, dog F-1102, oral gavage
[17] = female, dog F-2102, oral capsule

For `CN1C(=O)c2c(nn(Cc3ccc(-c4cccc(F)n4)cc3)c2Nc2ccccc2)N2C1=N[C@@H]1CCC[C@@H]12` [Free base API (amorphous), (6aR,9aS)-5,6a,7,8,9,9a-hexahydro-5-methyl-3-(phenylamino)-2-((4-(6-fluoropyridin-2-yl)phenyl)methyl)-cyclopent[4,5]imidazo[1,2-a]pyrazolo[4,3-e]pyrimidin-4(2H)-one], the solubility at 1 hr [1, 7] was > 20000 µg/mL, the solubility at 16 hr [1, 7] was > 20000 µg/mL and the solubility at 1 hr [1, 8] was > 20000 µg/mL. For the same compound, the solubility at 16 hr [1, 8] was > 20000 µg/mL, the “Solubility after 1 hr” value ([1]; pH 3, 50 mM phosphate buffer) was 2500 µg/mL and the “Solubility after 16 hrs” value ([1]; pH 3, 50 mM phosphate buffer) was 2200 µg/mL. For the same compound, the “solubility at low pH in dissolution study” value [2] was “good solubility”, the “time to full dissolution” value [2] was “approximately 15 minutes” and the AUC [3, 9] was 19200 ng·h/mL. For the same compound, the Cmax [3, 9] was 1020 ng/mL, the Tmax [3, 9] was 4 h and the half-life [3, 9] was 10.8 h. It also gave an AUC [3, 10] of 11500 ng·h/mL, a Cmax [3, 10] of 674 ng/mL and a Tmax [3, 10] of 8 h. For the same compound, the half-life [3, 10] was 6.7 h, the AUC [3, 11] was 14300 ng·h/mL and the Cmax [3, 11] was 2000 ng/mL. The Tmax [3, 11] was 2 h, the half-life [3, 11] was 5.5 h and the AUC ([3]; male, dog M-5001, oral gavage) was 20100 ng·h/mL. The Cmax ([3]; male, dog M-5001, oral gavage) was 902 ng/mL, the Tmax ([3]; male, dog M-5001, oral gavage) was 4 h and the half-life ([3]; male, dog M-5001, oral gavage) was 14.8 h. It also gave an AUC ([3]; male, dog M-5002, oral gavage) of 36500 ng·h/mL, a Cmax ([3]; male, dog M-5002, oral gavage) of 1320 ng/mL and a Tmax ([3]; male, dog M-5002, oral gavage) of 4 h. The half-life ([3]; male, dog M-5002, oral gavage) was 16.7 h and the “PDE1 inhibition (potency and selectivity in words)” value [4] was “potent and selective phosphodiesterase 1 (PDE 1) inhibitor”.

For `CN1C(=O)c2c(nn(Cc3ccc(-c4cccc(F)n4)cc3)c2Nc2ccccc2)N2C1=N[C@@H]1CCC[C@@H]12` [Phosphate salt, (6aR,9aS)-5,6a,7,8,9,9a-hexahydro-5-methyl-3-(phenylamino)-2-((4-(6-fluoropyridin-2-yl)phenyl)methyl)-cyclopent[4,5]imidazo[1,2-a]pyrazolo[4,3-e]pyrimidin-4(2H)-one], the solubility ([1]; 50 mM phosphate buffer, pH 4, aqueous buffer, thermodynamic from solid, pH 4) was ≤ 7700 µg/mL, the solubility at 1 hr [1, 12] was 2500 µg/mL and the solubility at 16 hr [1, 12] was 7700 µg/mL. The “Solubility after 1 hr” value ([1]; pH 1.2 (0.1N HCl)) was >20000 µg/mL, the “Solubility after 16 hrs” value ([1]; pH 1.2 (0.1N HCl)) was >20000 µg/mL and the “Solubility after 1 hr” value ([1]; pH 2, 50 mM phosphate buffer) was 13600 µg/mL. For the same compound, the “Solubility after 16 hrs” value ([1]; pH 2, 50 mM phosphate buffer) was 17000 µg/mL, the “solubility compared with the amorphous free base” value ([1]; pH 3) was “better solubility than the amorphous free base” and the “Solubility after 1 hr” value ([1]; pH 3, 50 mM phosphate buffer) was 8400 µg/mL. For the same compound, the “Solubility after 16 hrs” value ([1]; pH 3, 50 mM phosphate buffer) was 9400 µg/mL, the “Solubility after 1 hr” value [1, 13] was “Below detection limit*” and the “Solubility after 16 hrs” value [1, 13] was “Below detection limit*”. For the same compound, the “Solubility after 1 hr” value [1, 14] was “Below detection limit*”, the “Solubility after 16 hrs” value [1, 14] was “Below detection limit*” and the “dissolution rate compared with the free base” value ([2]; USP 2, pH 1 and pH 4.5) was “better dissolution rates than the free base”. For the same compound, the “solubility at low pH in dissolution study” value [2] was “good solubility”, the “time to full dissolution” value [2] was “approximately 15 minutes” and the AUC ([3]; both sexes, Mean, oral capsule) was 18700 ng·h/mL. For the same compound, the Tmax ([3]; both sexes, Mean, oral capsule) was 2 h, the half-life ([3]; both sexes, Mean, oral capsule) was 7.3 h and the AUC ([3]; both sexes, Mean, oral gavage) was 21300 ng·h/mL. It also gave a Tmax ([3]; both sexes, Mean, oral gavage) of 4 h, a half-life ([3]; both sexes, Mean, oral gavage) of 8.7 h and an AUC [3, 15] of 16200 ng·h/mL. It also gave a Cmax [3, 15] of 1080 ng/mL, a Tmax [3, 15] of 4 h and a half-life [3, 15] of 6.6 h. For the same compound, the AUC [3, 16] was 21300 ng·h/mL, the Cmax [3, 16] was 1360 ng/mL and the Tmax [3, 16] was 8 h. The half-life [3, 16] was 5.5 h, the AUC [3, 17] was 20500 ng·h/mL and the Cmax [3, 17] was 1470 ng/mL. It also gave a Tmax [3, 17] of 8 h, a half-life [3, 17] of 6.2 h and an AUC ([3]; male, dog M-1001, oral gavage) of 16900 ng·h/mL. It also gave a Cmax ([3]; male, dog M-1001, oral gavage) of 918 ng/mL, a Tmax ([3]; male, dog M-1001, oral gavage) of 8 h and a half-life ([3]; male, dog M-1001, oral gavage) of 7.8 h. The AUC ([3]; male, dog M-1002, oral gavage) was 31600 ng·h/mL, the Cmax ([3]; male, dog M-1002, oral gavage) was 1520 ng/mL and the Tmax ([3]; male, dog M-1002, oral gavage) was 4 h. The half-life ([3]; male, dog M-1002, oral gavage) was 12 h, the AUC ([3]; male, dog M-2001, oral capsule) was 13200 ng·h/mL and the Cmax ([3]; male, dog M-2001, oral capsule) was 2430 ng/mL. The Tmax ([3]; male, dog M-2001, oral capsule) was 2 h, the half-life ([3]; male, dog M-2001, oral capsule) was 4.6 h and the AUC ([3]; male, dog M-2002, oral capsule) was 21900 ng·h/mL. The Cmax ([3]; male, dog M-2002, oral capsule) was 1530 ng/mL, the Tmax ([3]; male, dog M-2002, oral capsule) was 2 h and the half-life ([3]; male, dog M-2002, oral capsule) was 7.8 h. It also gave a Cmax ([3]; Mean, oral capsule) of 1330 ng/mL, a Cmax ([3]; Mean, oral gavage) of 1160 ng/mL and an AUC(0-inf) ([5]; single oral dose 10 mg) of 772 ng·h/mL. The AUC(0-t) ([5]; single oral dose 10 mg) was 768 ng·h/mL, the Cmax ([5]; single oral dose 10 mg) was 89.7 ng/mL and the Tmax ([5]; single oral dose 10 mg) was 1 h. It also gave an AUC(0-inf) ([5]; single oral dose 25 mg) of 1340 ng·h/mL, an AUC(0-t) ([5]; single oral dose 25 mg) of 1340 ng·h/mL and a Cmax ([5]; single oral dose 25 mg) of 155 ng/mL. The Tmax ([5]; single oral dose 25 mg) was 0.5 h, the AUC(0-inf) ([5]; single oral dose 75 mg) was 3050 ng·h/mL and the AUC(0-t) ([5]; single oral dose 75 mg) was 3040 ng·h/mL. It also gave a Cmax ([5]; single oral dose 75 mg) of 334 ng/mL, a Tmax ([5]; single oral dose 75 mg) of 1 h and an AUC(0-inf) ([5]; single oral dose 150 mg) of 5050 ng·h/mL. It also gave an AUC(0-t) ([5]; single oral dose 150 mg) of 5040 ng·h/mL, a Cmax ([5]; single oral dose 150 mg) of 585 ng/mL and a Tmax ([5]; single oral dose 150 mg) of 1 h. For the same compound, the AUC(0-inf) ([5]; single oral dose 300 mg) was 8190 ng·h/mL, the AUC(0-t) ([5]; single oral dose 300 mg) was 8180 ng·h/mL and the Cmax ([5]; single oral dose 300 mg) was 828 ng/mL. The Tmax ([5]; single oral dose 300 mg) was 1 h, the solubility ([6]; general statement) was “good solubility” and the hygroscopicity ([6]; solid salt crystals) was “low hygroscopicity”. For the same compound, the stability ([6]; solid salt crystals) was “particularly stable”.
